# From patent US8362000B2, “Azetidinyl diamides as monoacylglycerol lipase inhibitors” (Janssen Pharmaceutica NV, priority 2009, dated 2013)
# Like-named read-outs stand apart in the source and are kept apart here.
# Key:
# mutant MGL = molecular target: T1, mutant MGL (Homo sapiens, UniProt Q99685, L169S/L176S); assay: MGL ThermoFluor assay - mutant; assay type: binding; settings: read-out: MGL mutant ThermoFluor Kd
# T1 sequence (Q99685 1-303 L169S/L176S): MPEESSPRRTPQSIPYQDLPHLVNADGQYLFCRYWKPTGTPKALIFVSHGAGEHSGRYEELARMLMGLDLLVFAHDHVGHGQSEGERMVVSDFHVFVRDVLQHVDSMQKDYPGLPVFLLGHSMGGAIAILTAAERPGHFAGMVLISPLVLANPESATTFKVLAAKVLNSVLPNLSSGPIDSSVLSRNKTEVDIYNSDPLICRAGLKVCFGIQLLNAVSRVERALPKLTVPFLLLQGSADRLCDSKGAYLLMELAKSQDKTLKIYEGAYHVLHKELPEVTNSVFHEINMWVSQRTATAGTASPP
# MGL = molecular target: T2, MGL (Rattus norvegicus, UniProt Q8R431); assay: 2-AG accumulation assay in rat brain homogenate; assay type: biochemical; settings: rat brain homogenate, 2-AG accumulation as percent of vehicle; for 2-AG accumulation, % of vehicle control at 1 µM: compound 1 μM, read-out: Rat Brain 2AG % VehCntrl (%) @ 1 μM; for 2-AG accumulation, % of vehicle control at 10 µM: compound 10 μM, read-out: Rat Brain 2AG % VehCntrl (%) @ 10 μM
# T2 construct: one g rat brain was homogenized using a Polytron homogenizer; from tissue; host or cells: rat brain homogenate
# T2 sequence (Q8R431 1-303): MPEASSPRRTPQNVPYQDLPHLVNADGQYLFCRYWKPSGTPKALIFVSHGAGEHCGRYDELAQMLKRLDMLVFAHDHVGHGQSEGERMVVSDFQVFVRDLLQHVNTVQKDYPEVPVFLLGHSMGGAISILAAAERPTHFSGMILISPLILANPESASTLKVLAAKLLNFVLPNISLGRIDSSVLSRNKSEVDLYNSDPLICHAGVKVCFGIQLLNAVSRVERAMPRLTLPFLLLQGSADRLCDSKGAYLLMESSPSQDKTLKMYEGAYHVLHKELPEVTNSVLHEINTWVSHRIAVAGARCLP
# [1] = ThermoFluor concentration-response
# [2] = ThermoFluor thermal stability binding assay
smiles,measurement,setting,value
O=C(c1nccs1)N1CCN(C2CN(C(=O)[C@@H]3C[C@H]3c3ccccc3Cl)C2)CC1 (racemic) [Cpd 642],Kd,mutant MGL; [1],0.499 µM
same,"2-AG accumulation, % of vehicle control at 1 µM",MGL,170%
"O=C(c1ccc(C2CCCCC2)cc1)N1CC(N2CCN(C(=O)c3ccco3)CC2)C1 [Cpd 2, 1-{1-[(4-Cyclohexylphenyl)carbonyl]azetidin-3-yl}-4-(furan-2-ylcarbonyl)piperazine]",Kd,mutant MGL; [1],0.00049 µM
same,"2-AG accumulation, % of vehicle control at 10 µM",MGL,911%
"O=C(c1ccc(-c2ccccc2)cc1)N1CC(N2CCN(C(=O)c3ccco3)CC2)C1 [Cpd 6, 1-[1-(Biphenyl-4-ylcarbonyl)azetidin-3-yl]-4-(furan-2-ylcarbonyl)piperazine]",Kd,mutant MGL; [1],0.0036 µM
same,"2-AG accumulation, % of vehicle control at 0.01 µM","MGL; compound 0.01 μM, read-out: Rat Brain 2AG % VehCntrl (%) @ 0.01 μM",75%
same,"2-AG accumulation, % of vehicle control at 0.1 µM","MGL; compound 0.1 μM, read-out: Rat Brain 2AG % VehCntrl (%) @ 0.1 μM",238%
same,"2-AG accumulation, % of vehicle control at 1 µM",MGL,554%
same,"2-AG accumulation, % of vehicle control at 10 µM",MGL,623%
"O=C(c1ccc(-c2ccccc2)cc1)N1CC(N2CCN(C(=O)c3ccc(Br)o3)CC2)C1 [Cpd 12, 1-[1-(Biphenyl-4-ylcarbonyl)azetidin-3-yl]-4-[(5-bromofuran-2-yl)carbonyl]piperazine]",Kd,mutant MGL; [1],0.0143 µM
same,"2-AG accumulation, % of vehicle control at 10 µM",MGL,448%
"CN(c1ccccc1)c1ccc(C(=O)N2CC(N3CCN(C(=O)c4ccccc4)CC3)C2)cc1 [Cpd 40, N-Methyl-N-phenyl-4-({3-[4-(phenylcarbonyl)piperazin-1-yl]azetidin-1-yl}carbonyl)aniline]",Kd,mutant MGL; [1],0.0242 µM
same,"2-AG accumulation, % of vehicle control at 10 µM",MGL,490%
"O=C(c1ccccc1)N1CCN(C2CN(C(=O)c3ccc(N4CCCCCC4)cc3)C2)CC1 [Cpd 41, 1-[4-({3-[4-(Phenylcarbonyl)piperazin-1-yl]azetidin-1-yl}carbonyl)phenyl]azepane]",Kd,mutant MGL; [1],0.004 µM
same,"2-AG accumulation, % of vehicle control at 10 µM",MGL,544%
"O=C(c1ccc(Cc2ccccc2)cc1)N1CCN(C2CN(C(=O)c3ccccc3)C2)CC1 [Cpd 61, 1-[(4-Benzylphenyl)carbonyl]-4-[1-(phenylcarbonyl)azetidin-3-yl]piperazine]",Kd,mutant MGL; [1],0.029 µM
same,"2-AG accumulation, % of vehicle control at 10 µM",MGL,604%
"O=C(c1ccccc1)N1CCN(C2CN(C(=O)c3ccc(-c4cccc(Cl)c4)cc3)C2)CC1 [Cpd 77, 1-{1-[(3′-Chlorobiphenyl-4-yl)carbonyl]azetidin-3-yl}-4-(phenylcarbonyl)piperazine]",Kd,mutant MGL; [1],0.00909 µM
same,"2-AG accumulation, % of vehicle control at 10 µM",MGL,231%
"O=C(c1ccccc1)N1CCN(C2CN(C(=O)c3ccc(-c4ccc(Br)cc4)cc3)C2)CC1 [Cpd 83, 1-{1-[(4′-Bromobiphenyl-4-yl)carbonyl]azetidin-3-yl}-4-(phenylcarbonyl)piperazine]",Kd,mutant MGL; [1],0.111 µM
same,"2-AG accumulation, % of vehicle control at 1 µM",MGL,105%
"O=C(c1ccccc1)N1CCN(C2CN(C(=O)c3ccc4c(ccn4-c4cccc(C(F)(F)F)c4)c3)C2)CC1 [Cpd 129, 1-[3-(Trifluoromethyl)phenyl]-5-({3-[4-(phenyl-carbonyl)piperazin-1-yl]azetidin-1-yl}carbonyl)-1H-indole]",Kd,mutant MGL; [2],0.01 µM
same,"2-AG accumulation, % of vehicle control at 1 µM",MGL,499%
"O=C(c1ccc(-c2ccc(Cl)cc2)cc1)N1CC(N2CCN(C(=O)c3nccs3)CC2)C1 [Cpd 163, 1-{1-[(4′-Chlorobiphenyl-4-yl)carbonyl]azetidin-3-yl}-4-(1,3-thiazol-2-ylcarbonyl)piperazine]",Kd,mutant MGL; [1],0.00345 µM
same,"2-AG accumulation, % of vehicle control at 10 µM",MGL,923%
"O=C(c1ccc(-c2cc(Cl)cc(Cl)c2)cc1)N1CC(N2CCN(C(=O)c3nccs3)CC2)C1 [Cpd 164, 1-{1-[(3′,5′-Dichlorobiphenyl-4-yl)carbonyl]azetidin-3-yl}-4-(1,3-thiazol-2-ylcarbonyl)piperazine]",Kd,mutant MGL; [1],0.00111 µM
same,"2-AG accumulation, % of vehicle control at 10 µM",MGL,969%
"O=C(c1ccc(-c2ccccc2)c(F)c1)N1CC(N2CCN(C(=O)c3cscn3)CC2)C1 [Cpd 170, 1-{1-[(2-Fluorobiphenyl-4-yl)carbonyl]azetidin-3-yl}-4-(1,3-thiazol-4-ylcarbonyl)piperazine]",Kd,mutant MGL; [1],0.0606 µM
same,"2-AG accumulation, % of vehicle control at 1 µM",MGL,205%
[2H]c1c([2H])c([2H])c(C(=O)N2CCN(C3CN(C(=O)c4ccc(-c5cccc(C(F)(F)F)c5)cc4)C3)CC2)c([2H])c1[2H] [Cpd 186-A],Kd,mutant MGL; [2],0.016 µM
same,"2-AG accumulation, % of vehicle control at 1 µM",MGL,149%
"O=C(c1ccc(-c2ccc(F)cc2F)cc1)N1CC(N2CCN(C(=O)c3cscn3)CC2)C1 [Cpd 226, 1-{1-[(2′,4′-Difluorobiphenyl-4-yl)carbonyl]azetidin-3-yl}-4-(1,3-thiazol-4-ylcarbonyl)piperazine]",Kd,mutant MGL; [2],0.02 µM
same,"2-AG accumulation, % of vehicle control at 10 µM",MGL,652%
"Cc1cc(C(=O)N2CC(N3CCN(C(=O)c4ccccc4)CC3)C2)ccc1-c1cccc(C(F)(F)F)c1 [Cpd 243, 1-(1-{[2-Methyl-3′-(trifluoromethyl)biphenyl-4-yl]carbonyl}azetidin-3-yl)-4-(phenylcarbonyl)piperazine]",Kd,mutant MGL; [2],0.0167 µM
same,"2-AG accumulation, % of vehicle control at 1 µM",MGL,120%
"Cc1cc(-c2ccc(F)c(Cl)c2)ccc1C(=O)N1CC(N2CCN(C(=O)c3ccccc3)CC2)C1 [Cpd 255, 1-{1-[(3′-Chloro-4′-fluoro-3-methylbiphenyl-4-yl)carbonyl]azetidin-3-yl}-4-(phenylcarbonyl)piperazine]",Kd,mutant MGL; [2],0.027 µM
same,"2-AG accumulation, % of vehicle control at 1 µM",MGL,115%
"Cc1cc(C(=O)N2CC(N3CCN(C(=O)c4ccccc4)CC3)C2)ccc1-c1ccc(F)c(Cl)c1 [Cpd 259, 1-{1-[(3′-Chloro-4′-fluoro-2-methylbiphenyl-4-yl)carbonyl]azetidin-3-yl}-4-(phenylcarbonyl)piperazine]",Kd,mutant MGL; [2],0.0077 µM
same,"2-AG accumulation, % of vehicle control at 1 µM",MGL,156%
"Cc1cc(C(=O)N2CC(N3CCN(C(=O)c4ccccc4)CC3)C2)ccc1-c1ccc(Cl)c(C(F)(F)F)c1 [Cpd 260, 1-(1-{[4′-Chloro-2-methyl-3′-(trifluoromethyl)biphenyl-4-yl]carbonyl}azetidin-3-yl)-4-(phenylcarbonyl)piperazine]",Kd,mutant MGL; [2],0.02 µM
same,"2-AG accumulation, % of vehicle control at 1 µM",MGL,140%
"COc1cc(C(=O)N2CC(N3CCN(C(=O)c4ccccc4)CC3)C2)ccc1-c1ccc(Cl)c(C(F)(F)F)c1 [Cpd 264, 1-(1-{[4′-Chloro-2-methoxy-3′-(trifluoromethyl)biphenyl-4-yl]carbonyl}azetidin-3-yl)-4-(phenylcarbonyl)piperazine]",Kd,mutant MGL; [2],0.01 µM
same,"2-AG accumulation, % of vehicle control at 1 µM",MGL,172%
"O=C(c1ccccc1)N1CCN(C2CN(C(=O)c3ccc(-c4ccc(F)c(Cl)c4)cc3Cl)C2)CC1 [Cpd 267, 1-{1-[(3,3′-Dichloro-4′-fluorobiphenyl-4-yl)carbonyl]azetidin-3-yl}-4-(phenylcarbonyl)piperazine]",Kd,mutant MGL; [2],0.0125 µM
same,"2-AG accumulation, % of vehicle control at 1 µM",MGL,130%
"O=C(c1ccccc1)N1CCN(C2CN(C(=O)c3ccc(-c4ccc(Cl)c(C(F)(F)F)c4)cc3Cl)C2)CC1 [Cpd 268, 1-(1-{[3,4′-Dichloro-3′-(trifluoromethyl)biphenyl-4-yl]carbonyl}azetidin-3-yl)-4-(phenylcarbonyl)piperazine]",Kd,mutant MGL; [2],0.025 µM
same,"2-AG accumulation, % of vehicle control at 1 µM",MGL,110%
"O=C(c1ccc(-c2ccccc2)cc1)N1CC(N2CCN(C(=O)c3ccns3)CC2)C1 [Cpd 310, 1-[1-(Biphenyl-4-ylcarbonyl)azetidin-3-yl]-4-(isothiazol-5-ylcarbonyl)piperazine]",Kd,mutant MGL; [2],0.25 µM
same,"2-AG accumulation, % of vehicle control at 1 µM",MGL,141%
"O=C(c1cc[nH]c1)N1CCN(C2CN(C(=O)c3ccc(-c4ccccc4)cc3)C2)CC1 [Cpd 311, 1-[1-(Biphenyl-4-ylcarbonyl)azetidin-3-yl]-4-(1H-pyrrol-3-ylcarbonyl)piperazine]",Kd,mutant MGL; [2],0.08 µM
same,"2-AG accumulation, % of vehicle control at 1 µM",MGL,125%
"O=C(c1ccc(-c2ccccc2)cc1)N1CC(N2CCN(C(=O)c3ccc(Cl)o3)CC2)C1 [Cpd 312, 1-[1-(Biphenyl-4-ylcarbonyl)azetidin-3-yl]-4-[(5-chlorofuran-2-yl)carbonyl]piperazine]",Kd,mutant MGL; [2],0.025 µM
same,"2-AG accumulation, % of vehicle control at 1 µM",MGL,198%
"O=C(c1ccc2c(c1)ncn2-c1ccc(C(F)(F)F)cc1)N1CC(N2CCN(C(=O)c3nccs3)CC2)C1 [Cpd 1064, 5-({3-[4-(1,3-Thiazol-2-ylcarbonyl)piperazin-1-yl]azetidin-1-yl}carbonyl)-1-[4-(trifluoromethyl)phenyl]-1H-benzimidazole]","2-AG accumulation, % of vehicle control at 1 µM",MGL,570%
"O=C(c1ccc2nc(-c3cccc(C(F)(F)F)c3)oc2c1)N1CC(N2CCN(C(=O)c3cscn3)CC2)C1 [Cpd 1151, 6-({3-[4-(1,3-Thiazol-4-ylcarbonyl)piperazin-1-yl]azetidin-1-yl}carbonyl)-2-[3-(trifluoromethyl)phenyl]-1,3-benzoxazole]","2-AG accumulation, % of vehicle control at 1 µM",MGL,482%
NC(=O)c1ccc(-n2ccc3cc(C(=O)N4CC(N5CCN(C(=O)c6nccs6)CC5)C4)ccc32)cc1 [Cpd 1171],"2-AG accumulation, % of vehicle control at 1 µM",MGL,839%
O=C(c1ccc2c(c1)ncn2-c1ccc(F)c(F)c1)N1CC(N2CCN(C(=O)c3nccs3)CC2)C1 [Cpd 1186],"2-AG accumulation, % of vehicle control at 1 µM",MGL,393%
